In patent US9296687B2, “Modulators of HSP70/DnaK function and methods of use thereof” (The Trustees of the University of Pennsylvania, priority 2008, dated 2016):

Assays:
[1] = test system: H1299 and FaDu; 6113 and WI38; experiment: MTT assay, tumorogenic versus normal fibroblast cell lines; format: cell-based, human; settings: various concentrations, 48 hours
Method: H1299 cells were seeded on […] and treated with 10 μM PES or 10 μM PES-Cl. DMSO treated cells were used as a control and the proliferation of the H1299 cells was observed over 24 and 48 hours of treatment. The cells were imaged by light microscopy with 20× magnification (FIG. 28). Non-tumorogenic and tumorogenic cells were then treated with PES-Cl to observe its toxicity and effect on proliferation. Two tumorogenic cell lines (H1299 and FaDu) and two normal fibroblast cell lines (6113 and WI38) were seeded on a 96-well plate. The cells were treated with various concentrations of PES and PES-Cl. Forty-eight hours post-treatment MTT assays (Cayman Chemical Company) were performed (FIG. 29).

20S proteasome = experiment: Cell-based 20S proteasome activity assay; parameters: species or system human; settings: H1299 or A875 cells; PES 20 μM, 17-AAG 1 μM, CQ 5 μM
EGFR, HER2/ErbB2, AKT = experiment: Western blot of HSP70/HSP90 client proteins in detergent-soluble and detergent-insoluble fractions; format: cell-based, human
Method: FIG. 17. PES impairs the proteasome system. (A) Cell-based 20S proteasome activity assay of H1299 or A875 human tumor cells treated with DMSO, 20 μM PES, 100 nM Velcade (proteasome inhibitor), 1 μM 17-AAG (HSP90 inhibitor), 5 μM CQ (lysosome inhibitor), or 20S proteasome inhibitor epigallocatechin gallate (EGCG). Each graphical representation indicates the mean±SD of at least three independent cultures relative to control (DMSO-treated) cells. (B) Cell extracts from SKBR3 human breast carcinoma cells, treated either with 20 μM PES or 1 μM 17-AAG for 24 h, were immunoprecipitated (IP) using anti-HSP70 or anti-HSP90 antibody. […] MTT assays of MCF7 human breast carcinoma cells pretreated with DMSO, or 5 μM PES for 1 h, followed by the addition of indicated amount of 17-AAG for 47 h. The results represent the mean±SD of at least three independent analysis of cultures relative to control (DMSO-treated) cells. (D and E) H1299 cells (D) or SKBR3 cells (E) were treated with DMSO, 20 μM PES, 17-AAG, or 17-AAG plus bortezomib (Velcade) as indicated; harvested in 1% NP-40 containing lysis buffer; fractionated into detergent-soluble and detergent-insoluble preparations; and assayed by western blot.
FIG. 18. Accumulation of HSP90 client proteins in the protein detergent-insoluble fraction following PES. (A) SKOV3 cells were treated with DMSO, 10 μM PES, or 20 μM PES for 24 h. Note the marked accumulation of EGFR, HER2/ErbB2, and AKT in the detergent-insoluble fraction following 20 μM PES treatment. (B and C) SKOV3 (B) or SKBR3 (C) cells were treated with DMSO, 20 μM PES, or 1 μM 17-AAG, as indicated, for 24 h. Cells were harvested in 1% NP-40 containing lysis buffer, fractionated into detergent-soluble and detergent-insoluble preparations, and assayed by western blot for the proteins indicated.
The HSP70 and HSC70 proteins bind to exposed hydrophobic regions of nascent-, translocating-, misfolded- or partially unfolded-proteins. These ATP-dependent molecular chaperones act in multi-protein complexes in conjunction with one or more regulatory co-chaperones to carry out multiple cellular functions. […] This is illustrated for H1299 cells treated with 10 or 20 μM PES for 24 h. […] This correlates with a reduced abundance of complexes containing HSP70, or HSC70, together with client proteins or co-chaperones (FIGS. 19A and 19B). […] However, since HSP70/HSC70 act as critical co-chaperones for HSP90, for example in client protein recruitment, PES-mediated alteration in the function of the 70-kDa molecular chaperones could be reflected in an altered behavior or expression of many client proteins. To test this idea, we examined the expression of a few well-established HSP90 client proteins, including the transmembrane tyrosine kinase receptors EGFR and HER2/ERBB2, and the downstream signaling factor AKT. These proteins are overexpressed, or aberrantly expressed, in a variety of human tumors, and have been implicated in cancer etiology and pathology. As a control for these studies, we compared the effects of PES to that of the well-established HSP90 inhibitor, 17-allylamino-17-demethoxygeldanamycin (17-AAG). 17-AAG interacts with the N-terminal region of HSP90 and inhibits its ATPase activity; this disrupts interactions of HSP90 with client proteins and leads to client-protein degradation via the ubiquitin-proteasome pathway (Whitesell, et al. 2005; Neckers, et al. 2007). To examine the expression of some HSP70/HSP90 clients, we used western blot analysis of detergent-soluble (clarified) whole cell extracts.

DnaK = DnaK (Escherichia coli, UniProt P0A6Y8); experiment: Identification of B-PES interacting protein in bacteria by LC-tandem MS; settings: E. coli DH5α, 50 μM B-PES, 3 h
Chain of DnaK (P0A6Y8 whole entry): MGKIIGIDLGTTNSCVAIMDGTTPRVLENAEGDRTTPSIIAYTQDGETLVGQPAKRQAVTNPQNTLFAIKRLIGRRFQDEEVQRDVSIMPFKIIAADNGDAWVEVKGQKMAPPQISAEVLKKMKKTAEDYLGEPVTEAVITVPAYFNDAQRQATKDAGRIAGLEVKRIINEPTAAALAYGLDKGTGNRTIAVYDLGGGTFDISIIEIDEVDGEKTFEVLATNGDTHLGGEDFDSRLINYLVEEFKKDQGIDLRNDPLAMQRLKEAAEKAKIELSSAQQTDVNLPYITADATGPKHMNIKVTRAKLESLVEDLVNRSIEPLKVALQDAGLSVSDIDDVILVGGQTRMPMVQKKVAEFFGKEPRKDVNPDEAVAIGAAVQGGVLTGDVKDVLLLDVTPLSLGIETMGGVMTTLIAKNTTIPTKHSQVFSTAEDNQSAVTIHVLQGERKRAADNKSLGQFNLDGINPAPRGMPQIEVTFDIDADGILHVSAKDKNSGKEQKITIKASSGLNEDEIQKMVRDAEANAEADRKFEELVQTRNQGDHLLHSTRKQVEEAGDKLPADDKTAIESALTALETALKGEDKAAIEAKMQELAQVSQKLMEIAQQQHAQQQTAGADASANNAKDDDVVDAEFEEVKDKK

cathepsin L = experiment: Western blot of cathepsin L processing; format: cell-based, human; settings: 20 μM, 24 h
FaDu tumor xenografts = experiment: FaDu xenograft, western blot of tumor lysates for p62/SQSTM1 and LC3; format: in vivo, nude mice; settings: 40 mg/kg intratumoral

For `NS(=O)(=O)C#Cc1ccccc1` [PES, 2-Phenylethynesulfonamide], the “cell survival, tumorogenic versus non-tumorogenic cells” value [1] was “greater concentration dependent effect on cell survival in tumorogenic cells”, the “activity of the 20S proteasome” value (20S proteasome) was “impairs the activity of the 20S proteasome” and the “EGFR, HER2/ErbB2 and AKT in the detergent-insoluble fraction” value (EGFR, HER2/ErbB2, AKT; 20 μM, 24 h) was “increased abundance of EGFR, HER2/ErbB2, and AKT in the detergent-insoluble fraction”. The “expression of integrin β1 and CHIP” value (EGFR, HER2/ErbB2, AKT; H1299 cells, 20 μM, 24 h) was “lower expression levels”, the “overall cellular abundance of EGFR, HER2/ErbB2 and AKT” value (EGFR, HER2/ErbB2, AKT; SKBR3 cells, detergent-soluble extracts, 24 h) was “reduction in the overall cellular abundance” and the “other cellular proteins in the detergent-insoluble fraction” value (EGFR, HER2/ErbB2, AKT; SKBR3 or SKOV3 cells) was “many of the proteins examined accumulate in the detergent-insoluble fraction”. For the same molecule, the “interaction with DnaK” value (DnaK) was “interacts with DnaK”, the “processing of cathepsin L” value (cathepsin L) was “accumulation of the precursor pro-cathepsin L and a markedly reduced abundance of the smaller, mature form of the enzyme” and the “LC3 in detergent-insoluble tumor fractions” value (FaDu tumor xenografts) was “accumulated LC3 in the detergent-insoluble fractions”. For the same molecule, the “p62/SQSTM1 abundance and oligomerization in tumor” value (FaDu tumor xenografts; 24 and 48 hr) was “increased p62/SQSMT1 abundance and oligomerization”.
